Earlier results in patent publication US8697743B2, “Antioxidant camptothecin derivatives and antioxidant antineoplastic nanospheres thereof” (Cedars-Sinai Medical Center, priority 2008, dated 2014).

Assays:
[1] = 30 minutes after administration

For `CC[C@@]1(O)C(=O)OCc2c1cc1n(c2=O)Cc2cc3ccccc3nc2-1` [camptothecin, (S)-4-ethyl-4-hydroxy-1H-pyrano-[3′,4′:6,7]indolizino[1,2-b]quinoline-3,14(4H,12H)-dione], the solubility in water is listed as “essentially insoluble in water” and the “lactone form hydrolyzed to an open ring” value [1] is listed as 50%.
